Drawing on PMC9518264, “Design and synthesis of novel quinazolinone-based derivatives as EGFR inhibitors with antitumor activity” (Journal of Enzyme Inhibition and Medicinal Chemistry, 2022), this text covers inhibition, IC50 and melting point for ten compounds.

Data set [1] deals with HL-60(TB). The data set is described as follows: cells. To be noted: Homo sapiens. In kind it is cell-based.
Data set [2] has as its system NCI-H226. The data set is described as follows: cells. In kind it is cell-based. To be noted: Homo sapiens.
In data set [3] the test system is NCI-H522. The data set is described as follows: cells. In kind it is cell-based. The settings on record: Homo sapiens.
Data set [4] has as its system HCC-2998. The data set is described as follows: cells. The settings on record: Homo sapiens. In kind it is cell-based.
In data set [5] the test system is HCT-15. In words: cells. In kind it is cell-based. To be noted: Homo sapiens.
For data set [6], the system named is SNB-75. The data set is described as follows: cells. In kind it is cell-based. To be noted: Homo sapiens.
Data set [7] deals with M14. In words: cells. Format: cell-based. To be noted: Homo sapiens.
For data set [8], the system named is UACC-257. In words: cells. In kind it is cell-based. The settings on record: Homo sapiens.
The subject of data set [9] is OVCAR-4. In words: cells. In kind it is cell-based. The settings on record: Homo sapiens.
Data set [10] concerns CAKI-1. The data set is described as follows: cells. In kind it is cell-based. To be noted: Homo sapiens.
In data set [11] the test system is RXF 393. The data set is described as follows: cells. The settings on record: Homo sapiens. In kind it is cell-based.
In data set [12] the test system is TK-10. In words: cells. In kind it is cell-based. To be noted: Homo sapiens.
Data set [13] concerns the target EGFR (Homo sapiens, UniProt P00533). The data set is described as follows: In vitro EGFR kinase inhibitory assay (Kinase-Glo Max luminescence kit). In kind it is biochemical. Background: In Kinase-Glo more light means more ATP remaining.
Data set [14] deals with OVCAR-3. The data set is described as follows: NCI 60 cell line antiproliferative screening (SRB), Ovarian cancer. To be noted: Homo sapiens, OVCAR-3, read-out: growth inhibition % (GI%).
Setting [15] is: HL-60, read-out: growth inhibition % (GI%).
Where [16] appears, read: NCI-H226, read-out: growth inhibition % (GI%).
The mark [17] stands for this setting: NCI-H522, read-out: growth inhibition % (GI%).
Setting [18] is: HCC 2998, read-out: growth inhibition % (GI%).
Setting [19] is: HCT-15, read-out: growth inhibition % (GI%).
Where [20] appears, read: SNB-75, read-out: growth inhibition % (GI%).
Setting [21] is: UACC-257, read-out: growth inhibition % (GI%).
Setting [22] is: OVCAR-4, read-out: growth inhibition % (GI%).
The mark [23] stands for this setting: TK-10, read-out: growth inhibition % (GI%).
The mark [24] stands for this setting: HL-60(TB), 10 μM, read-out: growth inhibition % (GI%).
Setting [25] is: NCI-H226, 10 μM, read-out: growth inhibition % (GI%).
Where [26] appears, read: NCI-H522, 10 μM, read-out: growth inhibition % (GI%).
Where [27] appears, read: HCC-2998, 10 μM, read-out: growth inhibition % (GI%).
Setting [28] is: HCT-15, 10 μM, read-out: growth inhibition % (GI%).
The mark [29] stands for this setting: SNB-75, 10 μM, read-out: growth inhibition % (GI%).
[30] abbreviates: UACC-257, 10 μM, read-out: growth inhibition % (GI%).
Where [31] appears, read: OVCAR-4, 10 μM, read-out: growth inhibition % (GI%).
Setting [32] is: TK-10, 10 μM, read-out: growth inhibition % (GI%).

Like-named read-outs stand apart in the source and are kept apart here.

EGFR, sequence (P00533 669-1210): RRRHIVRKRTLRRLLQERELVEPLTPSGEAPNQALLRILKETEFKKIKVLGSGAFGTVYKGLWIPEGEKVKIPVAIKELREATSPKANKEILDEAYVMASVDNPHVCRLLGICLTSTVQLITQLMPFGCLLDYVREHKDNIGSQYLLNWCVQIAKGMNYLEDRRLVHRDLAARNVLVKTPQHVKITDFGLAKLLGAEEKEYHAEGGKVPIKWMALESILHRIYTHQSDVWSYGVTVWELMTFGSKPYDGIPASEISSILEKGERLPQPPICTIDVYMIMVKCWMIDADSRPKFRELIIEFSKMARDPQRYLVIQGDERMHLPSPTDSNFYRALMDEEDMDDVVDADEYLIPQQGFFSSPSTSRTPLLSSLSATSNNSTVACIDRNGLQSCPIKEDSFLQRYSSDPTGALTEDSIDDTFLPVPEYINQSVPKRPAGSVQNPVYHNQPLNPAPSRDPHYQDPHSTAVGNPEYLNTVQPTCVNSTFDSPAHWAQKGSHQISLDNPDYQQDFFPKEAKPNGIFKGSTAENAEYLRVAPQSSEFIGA

The term inhibition denotes the percentage by which the read-out fell short of the control. Broadly, the IC50 is the concentration at which inhibition is half-maximal. A high value points to lower potency. On to `O=C(CSc1nc2ccccc2c(=O)n1-c1ccccc1)NN=Cc1ccc(Oc2ccc(Cl)cc2)cc1` [6a, N'-(4–(4-chlorophenoxy)benzylidene)-2-((4-oxo-3-phenyl-3,4-dihydroquinazolin-2-yl)thio)acetohydrazide], for which the inhibition at 10 µM is less than 15% in data set [1] (setting [15]); 27.9% in [2] (setting [16]); 50.4% in data set [3] (setting [17]); less than 15% in data set [4] (setting [18]); 39.2% in data set [5] (setting [19]); 39.9% in data set [6] (setting [20]). The inhibition at 10 µM in data set [7] (M14, read-out: growth inhibition % (GI%)) is 51.2%; in data set [8] (setting [21]), less than 15%; in data set [9] (setting [22]), 26.2%; in data set [10] (CAKI-1, read-out: growth inhibition % (GI%)), 40.8%; in data set [11] (RXF 393, read-out: growth inhibition % (GI%)) it was 58%; in [12] (setting [23]), less than 15%. For the same compound, in data set [14], the inhibition at 10 µM was less than 15%. Moreover, the IC50 in data set [13] stood at 202 ± 12 nM.
With `COc1ccc(Oc2ccc(C=NNC(=O)CSc3nc4ccccc4c(=O)n3-c3ccccc3)cc2)cc1` [6c, N'-(4–(4-methoxyphenoxy)benzylidene)-2-((4-oxo-3-phenyl-3,4-dihydroquinazolin-2-yl)thio)acetohydrazide], the inhibition at 10 µM in data set [1] (setting [24]), in data set [2] (setting [25]), in data set [3] (setting [26]), in data set [4] (setting [27]), in data set [5] (setting [28]) and in data set [6] (setting [29]) was less than 15% in each case. The inhibition at 10 µM in [8] (setting [30]), in data set [9] (setting [31]), in [12] (setting [32]) and in [14] was less than 15% throughout.
For `O=C(CSc1nc2ccccc2c(=O)n1-c1ccc(Cl)cc1)NN=Cc1ccc(Oc2ccc(Br)cc2)cc1` [6e, N'-(4–(4-bromophenoxy)benzylidene)-2-((3–(4-chlorophenyl)-4-oxo-3,4-dihydroquinazolin-2-yl)thio)acetohydrazide], the inhibition at 10 µM in [1] (setting [24]) is less than 15%; in data set [2] (setting [25]), less than 15%; in [3] (setting [26]) it was 13.4%; in data set [4] (setting [27]), less than 15%; in data set [5] (setting [28]) it was less than 15%; in data set [6] (setting [29]) it was less than 15%. For the same compound, the inhibition at 10 µM in [8] (setting [30]), in [9] (setting [31]), in [12] (setting [32]) and in data set [14] was less than 15% each time.
As to `COc1ccc(Oc2ccc(C=NNC(=O)CSc3nc4ccccc4c(=O)n3-c3ccc(Cl)cc3)cc2)cc1` [6f, 2-((3–(4-chlorophenyl)-4-oxo-3,4-dihydroquinazolin-2-yl)thio)-N'-(4–(4-methoxyphenoxy)benzylidene)acetohydrazide], the inhibition at 10 µM in [1] (setting [15]) is less than 15%; in [2] (setting [16]), 20.3%; in data set [3] (setting [17]), 48.7%; in [4] (setting [18]) it was 16.6%; in data set [5] (setting [19]), 44%; in data set [6] (setting [20]), 58.4%. Further, the inhibition at 10 µM in data set [8] (setting [21]) is less than 15%; in data set [9] (setting [22]), 27.4%; in [12] (setting [23]), less than 15%; in data set [14], more than 100%. The midpoint of inhibition in data set [13], the IC50, lay at 133 ± 8 nM.
What is called melting point is the temperature, or range, at which the solid turns liquid. `O=C(CSc1nc2ccccc2c(=O)n1-c1ccccc1)NN=Cc1ccc(N2CCCCC2)cc1` [6g, 2-((4-oxo-3-phenyl-3,4-dihydroquinazolin-2-yl)thio)-N'-(4-(piperidin-1-yl)benzylidene) acetohydrazide] came in with a melting point of 164 to 166 °C. For the same compound, the inhibition at 10 µM in [1] (setting [24]) is less than 15%. In data set [2] (setting [25]), the inhibition at 10 µM was less than 15%. Moreover, the inhibition at 10 µM in data set [3] (setting [26]) was 15.3%. For the same compound, the inhibition at 10 µM in data set [4] (setting [27]) is less than 15%. The inhibition at 10 µM in data set [5] (setting [28]) was 16.2%. The inhibition at 10 µM in [6] (setting [29]) is 19.9%. Moreover, the inhibition at 10 µM in data set [7] (M14, 10 μM, read-out: growth inhibition % (GI%)) was less than 15%. Besides, the inhibition at 10 µM in data set [8] (setting [30]) was less than 15%. In data set [9] (setting [31]), the inhibition at 10 µM is less than 15%. Besides, the inhibition at 10 µM in [10] (CAKI-1, 10 μM, read-out: growth inhibition % (GI%)) turned out to be 22%. Besides, the inhibition at 10 µM in data set [11] (RXF 393, 10 μM, read-out: growth inhibition % (GI%)) is less than 15%. Moreover, in data set [12] (setting [32]), the inhibition at 10 µM is less than 15%. Further, the inhibition at 10 µM in [14] is less than 15%.
`O=C(CSc1nc2ccccc2c(=O)n1-c1ccccc1)NN=Cc1ccc(N2CCOCC2)cc1` [6h, N'-(4-morpholinobenzylidene)-2-((4-oxo-3-phenyl-3,4-dihydroquinazolin-2-yl)thio)acetohydrazide]: the inhibition at 10 µM in data set [1] (setting [24]), in data set [2] (setting [25]), in data set [3] (setting [26]), in data set [4] (setting [27]), in data set [5] (setting [28]) and in [6] (setting [29]) was less than 15% each time. Further, the inhibition at 10 µM in [8] (setting [30]), in data set [9] (setting [31]), in data set [12] (setting [32]) and in [14] was less than 15% each time.
On to `CN1CCN(c2ccc(C=NNC(=O)CSc3nc4ccccc4c(=O)n3-c3ccccc3)cc2)CC1` [6i, N'-(4–(4-methylpiperazin-1-yl)benzylidene)-2-((4-oxo-3-phenyl-3,4-dihydroquinazolin-2-yl)thio) acetohydrazide], for which the inhibition at 10 µM in data set [1] (setting [24]), in [2] (setting [25]), in data set [3] (setting [26]), in [4] (setting [27]), in data set [5] (setting [28]) and in [6] (setting [29]) was less than 15% throughout. Further, the inhibition at 10 µM in data set [8] (setting [30]), in [9] (setting [31]), in data set [12] (setting [32]) and in data set [14] was less than 15% in each case.
With `O=C(CSc1nc2ccccc2c(=O)n1-c1ccc(Cl)cc1)NN=Cc1ccc(N2CCCCC2)cc1` [6j, 2-((3–(4-chlorophenyl)-4-oxo-3,4-dihydroquinazolin-2-yl)thio)-N'-(4-(piperidin-1-yl)benzylidene) acetohydrazide], the inhibition at 10 µM was less than 15% in data set [1] (setting [15]); 61.8% in data set [2] (setting [16]); less than 15% in data set [3] (setting [17]); less than 15% in data set [4] (setting [18]); 32.2% in [5] (setting [19]); 20.1% in data set [6] (setting [20]). Also, the inhibition at 10 µM in [8] (setting [21]) was less than 15%; in [9] (setting [22]), 41.4%; in data set [12] (setting [23]), less than 15%; in data set [14], 67.2%. The same compound registered an IC50 in [13] of 478 ± 29 nM.
Consider `O=C(CSc1nc2ccccc2c(=O)n1-c1ccc(Cl)cc1)NN=Cc1ccc(N2CCOCC2)cc1` [6k, 2-((3–(4-chlorophenyl)-4-oxo-3,4-dihydroquinazolin-2-yl)thio)-N'-(4-morpholinobenzylidene) acetohydrazide], for which the inhibition at 10 µM in data set [1] (setting [24]), in data set [2] (setting [25]), in data set [3] (setting [26]), in data set [4] (setting [27]), in data set [5] (setting [28]) and in [6] (setting [29]) was less than 15% each time. The inhibition at 10 µM in data set [8] (setting [30]), in [9] (setting [31]), in data set [12] (setting [32]) and in [14] was less than 15% in each case.
For `CN1CCN(c2ccc(C=NNC(=O)CSc3nc4ccccc4c(=O)n3-c3ccc(Cl)cc3)cc2)CC1` [6l, 2-((3–(4-chlorophenyl)-4-oxo-3,4-dihydroquinazolin-2-yl)thio)-N'-(4–(4-methylpiperazin-1-yl)benzylidene)acetohydrazide], the inhibition at 10 µM in data set [1] (setting [24]), in [2] (setting [25]), in [3] (setting [26]), in data set [4] (setting [27]), in [5] (setting [28]) and in data set [6] (setting [29]) was less than 15% each time. The inhibition at 10 µM in data set [8] (setting [30]), in data set [9] (setting [31]), in data set [12] (setting [32]) and in data set [14] was less than 15% throughout.
